How the values were obtained:
Assay in all cases: Kinase profiling (radioactive filter binding)
Format in all cases: biochemical
Details in all cases: 1 uM compound
MAP4K3 = MAP4K3 (Homo sapiens, UniProt Q8IVH8)
Description: (§1) 3A5 and 5E4 were sent to the International Centre for Kinase Profiling at the MRC Protein Phosphorylation and Ubiquitylation Unit for profiling (as described in ref ([17])). Compounds were profiled against 140 kinases using a radioactive ([^33P]ATP) filter binding assay at a concentration of 1 μM. Results were obtained as inhibition of kinase activity and are listed in Supplementary Table 2.

PIM3 = PIM3 (Homo sapiens, UniProt Q86V86)
Description: as §1

NEK2a = NEK2a (Homo sapiens, UniProt P51955)
Description: as §1

EPH-B4 = EPH-B4 (Homo sapiens, UniProt P54760)
Description: as §1

JAK2 = JAK2 (Homo sapiens, UniProt O60674)
Description: as §1

MINK1 = MINK1 (Homo sapiens, UniProt Q8N4C8)
Description: as §1

TTK = TTK (Homo sapiens, UniProt P33981)
Description: as §1

YES1 = YES1 (Homo sapiens, UniProt P07947)
Description: as §1

Aurora B = Aurora B (Homo sapiens, UniProt Q96GD4)
Description: as §1

MARK4 = MARK4 (Homo sapiens, UniProt Q96L34)
Description: as §1

PKCa = PKCa (Homo sapiens, UniProt P17252)
Description: as §1

MELK = MELK (Homo sapiens, UniProt Q14680)
Description: as §1

p38b MAPK = p38b MAPK (Homo sapiens, UniProt Q15759)
p38b MAPK, sequence (Q15759 whole entry): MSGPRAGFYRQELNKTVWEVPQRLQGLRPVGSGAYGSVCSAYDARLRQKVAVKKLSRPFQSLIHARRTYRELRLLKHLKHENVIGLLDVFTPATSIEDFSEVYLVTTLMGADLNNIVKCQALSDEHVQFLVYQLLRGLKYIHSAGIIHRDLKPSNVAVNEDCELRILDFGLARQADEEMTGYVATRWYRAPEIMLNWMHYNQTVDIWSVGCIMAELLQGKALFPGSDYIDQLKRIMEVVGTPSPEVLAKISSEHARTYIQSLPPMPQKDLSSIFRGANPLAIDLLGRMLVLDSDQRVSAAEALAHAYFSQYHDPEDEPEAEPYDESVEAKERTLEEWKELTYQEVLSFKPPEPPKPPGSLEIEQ
Description: as §1

TTBK2 = TTBK2 (Homo sapiens, UniProt Q6IQ55)
Description: as §1

WNK1 = WNK1 (Homo sapiens, UniProt Q9H4A3)
Description: as §1

SmMLCK = SmMLCK (Homo sapiens, UniProt Q15746)
Description: as §1

PRAK = PRAK (Homo sapiens, UniProt Q8IW41)
PRAK, sequence (Q8IW41 whole entry): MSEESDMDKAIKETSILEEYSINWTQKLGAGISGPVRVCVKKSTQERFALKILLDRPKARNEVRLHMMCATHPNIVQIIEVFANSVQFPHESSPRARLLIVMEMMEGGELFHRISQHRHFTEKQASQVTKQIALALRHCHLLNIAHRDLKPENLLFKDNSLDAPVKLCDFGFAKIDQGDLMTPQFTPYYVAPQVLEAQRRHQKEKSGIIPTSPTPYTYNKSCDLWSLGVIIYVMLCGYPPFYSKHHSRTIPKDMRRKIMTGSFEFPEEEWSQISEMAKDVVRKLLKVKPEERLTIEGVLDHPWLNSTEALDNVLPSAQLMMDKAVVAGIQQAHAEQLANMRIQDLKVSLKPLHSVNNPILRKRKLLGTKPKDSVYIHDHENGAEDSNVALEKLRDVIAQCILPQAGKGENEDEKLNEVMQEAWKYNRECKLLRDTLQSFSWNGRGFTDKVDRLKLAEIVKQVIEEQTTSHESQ
Description: as §1

IGF-1R = IGF-1R (Homo sapiens, UniProt P08069)
Description: as §1

TTBK1 = TTBK1 (Homo sapiens, UniProt Q5TCY1)
Description: as §1

RSK1 = RSK1 (Homo sapiens, UniProt Q15418)
RSK1, sequence (Q15418 whole entry): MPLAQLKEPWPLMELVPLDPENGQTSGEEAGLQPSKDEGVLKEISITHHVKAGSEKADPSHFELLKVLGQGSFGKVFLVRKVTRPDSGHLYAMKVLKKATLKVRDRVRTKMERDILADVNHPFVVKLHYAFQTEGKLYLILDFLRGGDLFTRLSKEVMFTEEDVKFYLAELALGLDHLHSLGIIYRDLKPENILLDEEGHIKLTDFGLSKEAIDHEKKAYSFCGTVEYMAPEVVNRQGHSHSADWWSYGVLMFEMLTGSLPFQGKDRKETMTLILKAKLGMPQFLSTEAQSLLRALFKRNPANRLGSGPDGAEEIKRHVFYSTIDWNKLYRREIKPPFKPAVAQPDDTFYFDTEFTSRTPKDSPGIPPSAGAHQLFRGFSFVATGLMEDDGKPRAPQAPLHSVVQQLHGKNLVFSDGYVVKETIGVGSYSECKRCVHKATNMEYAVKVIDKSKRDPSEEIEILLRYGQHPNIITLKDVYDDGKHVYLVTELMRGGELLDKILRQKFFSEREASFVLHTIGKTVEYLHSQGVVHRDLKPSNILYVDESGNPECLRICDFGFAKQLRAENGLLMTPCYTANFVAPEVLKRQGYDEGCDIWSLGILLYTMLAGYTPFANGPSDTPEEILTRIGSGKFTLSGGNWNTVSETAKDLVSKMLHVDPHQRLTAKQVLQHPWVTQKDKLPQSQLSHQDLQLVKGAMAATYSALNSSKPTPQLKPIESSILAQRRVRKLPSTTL
Description: as §1

TLK1 = TLK1 (Homo sapiens, UniProt Q9UKI8)
Description: as §1

CK1γ2 = CK1γ2 (Homo sapiens, UniProt P78368)
Description: as §1

TIE2 = TIE2 (Homo sapiens, UniProt Q02763)
Description: as §1

DYRK3 = DYRK3 (Homo sapiens, UniProt O43781)
DYRK3, sequence (O43781 whole entry): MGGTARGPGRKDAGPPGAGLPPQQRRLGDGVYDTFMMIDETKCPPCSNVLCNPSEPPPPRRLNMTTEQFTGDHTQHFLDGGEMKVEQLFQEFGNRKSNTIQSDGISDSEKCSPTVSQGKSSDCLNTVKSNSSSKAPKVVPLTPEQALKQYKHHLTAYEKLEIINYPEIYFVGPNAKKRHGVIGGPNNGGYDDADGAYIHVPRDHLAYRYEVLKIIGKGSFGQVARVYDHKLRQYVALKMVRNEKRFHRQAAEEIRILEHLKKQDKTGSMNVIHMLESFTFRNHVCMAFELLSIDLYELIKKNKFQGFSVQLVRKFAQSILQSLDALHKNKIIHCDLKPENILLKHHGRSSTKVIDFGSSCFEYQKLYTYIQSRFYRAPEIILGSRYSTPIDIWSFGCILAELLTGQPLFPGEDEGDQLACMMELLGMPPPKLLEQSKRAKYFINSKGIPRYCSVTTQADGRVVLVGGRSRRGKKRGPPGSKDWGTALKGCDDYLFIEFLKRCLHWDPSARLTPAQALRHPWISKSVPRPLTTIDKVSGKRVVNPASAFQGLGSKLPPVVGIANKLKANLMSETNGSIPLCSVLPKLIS
Description: as §1

p38g MAPK = p38g MAPK (Homo sapiens, UniProt P53778)
Description: as §1

HIPK2 = HIPK2 (Homo sapiens, UniProt Q9H2X6)
Description: as §1

PDK1 = PDK1 (Homo sapiens, UniProt O15530)
Description: as §1

EPH-B3 = EPH-B3 (Homo sapiens, UniProt P54753)
Description: as §1

CHK2 = CHK2 (Homo sapiens, UniProt O96017)
Description: as §1

EF2K = EF2K (Homo sapiens, UniProt O00418)
Description: as §1

PAK5 = PAK5 (Homo sapiens, UniProt Q9P286)
Description: as §1

DDR2 = DDR2 (Homo sapiens, UniProt Q16832)
Description: as §1

CHK1 = CHK1 (Homo sapiens, UniProt O14757)
CHK1, sequence (O14757 whole entry): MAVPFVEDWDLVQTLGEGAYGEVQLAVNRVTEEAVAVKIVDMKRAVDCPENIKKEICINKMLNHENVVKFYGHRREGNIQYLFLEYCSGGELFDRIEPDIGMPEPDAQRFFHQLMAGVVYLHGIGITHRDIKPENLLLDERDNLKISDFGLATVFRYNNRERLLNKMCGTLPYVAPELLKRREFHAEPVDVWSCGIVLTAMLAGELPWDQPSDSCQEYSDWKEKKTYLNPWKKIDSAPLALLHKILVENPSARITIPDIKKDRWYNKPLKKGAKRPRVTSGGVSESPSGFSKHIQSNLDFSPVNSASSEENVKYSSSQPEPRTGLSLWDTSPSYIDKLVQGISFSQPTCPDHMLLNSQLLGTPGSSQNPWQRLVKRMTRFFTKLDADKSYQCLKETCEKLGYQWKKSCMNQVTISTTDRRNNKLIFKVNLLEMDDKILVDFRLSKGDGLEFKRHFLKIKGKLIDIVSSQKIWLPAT
Description: as §1

DAPK1 = DAPK1 (Homo sapiens, UniProt P53355)
Description: as §1

PAK4 = PAK4 (Homo sapiens, UniProt O96013)
Description: as §1

TBK1 = TBK1 (Homo sapiens, UniProt Q9UHD2)
Description: as §1

Aurora A = Aurora A (Homo sapiens, UniProt O14965)
Aurora A, sequence (O14965 whole entry): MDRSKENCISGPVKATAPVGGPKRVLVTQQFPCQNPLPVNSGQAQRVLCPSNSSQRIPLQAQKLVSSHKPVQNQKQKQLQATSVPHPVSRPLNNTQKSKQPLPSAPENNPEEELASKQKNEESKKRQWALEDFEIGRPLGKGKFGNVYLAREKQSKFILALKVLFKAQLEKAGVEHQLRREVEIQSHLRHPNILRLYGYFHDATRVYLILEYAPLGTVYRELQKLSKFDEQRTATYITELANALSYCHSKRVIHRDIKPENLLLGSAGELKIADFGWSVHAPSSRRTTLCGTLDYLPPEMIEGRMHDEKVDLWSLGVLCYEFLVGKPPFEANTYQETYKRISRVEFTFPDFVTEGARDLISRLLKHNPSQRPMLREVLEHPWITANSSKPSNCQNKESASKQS
Description: as §1

VEG-FR = VEG-FR (Homo sapiens, UniProt P17948)
Description: as §1

IKKb = IKKb (Homo sapiens, UniProt O14920)
Description: as §1

SIK3 = SIK3 (Homo sapiens, UniProt Q9Y2K2)
SIK3, sequence (Q9Y2K2 whole entry): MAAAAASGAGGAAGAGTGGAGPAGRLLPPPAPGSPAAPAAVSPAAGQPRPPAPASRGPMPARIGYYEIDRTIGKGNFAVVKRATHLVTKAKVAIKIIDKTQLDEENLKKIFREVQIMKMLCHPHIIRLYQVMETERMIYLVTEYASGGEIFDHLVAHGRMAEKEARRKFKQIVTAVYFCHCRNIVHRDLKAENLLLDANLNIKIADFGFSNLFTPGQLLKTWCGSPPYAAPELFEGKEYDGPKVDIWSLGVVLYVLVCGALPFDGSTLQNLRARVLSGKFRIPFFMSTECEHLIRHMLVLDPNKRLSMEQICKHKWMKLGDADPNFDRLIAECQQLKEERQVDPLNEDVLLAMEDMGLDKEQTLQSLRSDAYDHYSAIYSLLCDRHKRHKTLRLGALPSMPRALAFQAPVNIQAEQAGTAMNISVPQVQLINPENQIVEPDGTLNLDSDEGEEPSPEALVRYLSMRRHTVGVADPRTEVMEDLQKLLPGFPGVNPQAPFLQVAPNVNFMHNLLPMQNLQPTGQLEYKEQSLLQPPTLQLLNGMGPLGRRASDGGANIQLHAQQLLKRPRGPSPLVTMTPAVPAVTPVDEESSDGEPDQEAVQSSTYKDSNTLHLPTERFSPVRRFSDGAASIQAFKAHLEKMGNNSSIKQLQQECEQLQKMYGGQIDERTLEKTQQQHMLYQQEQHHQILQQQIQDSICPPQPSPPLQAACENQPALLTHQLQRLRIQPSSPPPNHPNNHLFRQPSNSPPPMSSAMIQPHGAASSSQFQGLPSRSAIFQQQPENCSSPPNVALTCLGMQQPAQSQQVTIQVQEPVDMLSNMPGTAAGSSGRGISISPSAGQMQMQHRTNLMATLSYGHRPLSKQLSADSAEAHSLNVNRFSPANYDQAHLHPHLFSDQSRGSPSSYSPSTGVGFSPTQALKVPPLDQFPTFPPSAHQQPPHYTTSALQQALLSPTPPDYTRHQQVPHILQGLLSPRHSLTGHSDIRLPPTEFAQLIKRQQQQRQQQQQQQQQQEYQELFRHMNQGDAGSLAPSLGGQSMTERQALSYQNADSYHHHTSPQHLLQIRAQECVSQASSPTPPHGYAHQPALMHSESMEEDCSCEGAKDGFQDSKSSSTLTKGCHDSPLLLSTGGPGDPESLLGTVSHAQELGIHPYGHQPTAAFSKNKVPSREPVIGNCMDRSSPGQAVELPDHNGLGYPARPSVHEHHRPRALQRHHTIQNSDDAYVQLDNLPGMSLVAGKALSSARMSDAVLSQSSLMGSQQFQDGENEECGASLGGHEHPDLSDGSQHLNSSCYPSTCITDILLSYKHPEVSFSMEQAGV
Description: as §1

SGK1 = SGK1 (Homo sapiens, UniProt O00141)
Description: as §1

MKK1 = MKK1 (Homo sapiens, UniProt Q02750)
Description: as §1

MLK3 = MLK3 (Homo sapiens, UniProt Q16584)
Description: as §1

## CSc1nc2ccc3nc(NC(=O)c4ccco4)sc3c2s1 [5E4, N-[7-(methylsulfanyl)[1,3]thiazolo[4,5-g][1,3]benzothiazol-2-yl]-2-furamide]
MAP4K3
  MAP4K3 activity in kinase profiling: 121
PIM3
  PIM3 activity in kinase profiling: 95
NEK2a
  NEK2a activity in kinase profiling: 83
EPH-B4
  EPH-B4 activity in kinase profiling: 84
JAK2
  JAK2 activity in kinase profiling: 105
MINK1
  MINK1 activity in kinase profiling: 8
TTK
  TTK activity in kinase profiling: 60
YES1
  YES1 activity in kinase profiling: 110
Aurora B
  Aurora B activity in kinase profiling: 64
MARK4
  MARK4 activity in kinase profiling: 87
PKCa
  PKCa activity in kinase profiling: 81
MELK
  MELK activity in kinase profiling: 71
p38b MAPK
  p38b MAPK activity in kinase profiling: 98
TTBK2
  TTBK2 activity in kinase profiling: 103
WNK1
  WNK1 activity in kinase profiling: 90
SmMLCK
  SmMLCK activity in kinase profiling: 43
PRAK
  PRAK activity in kinase profiling: 85
IGF-1R
  IGF-1R activity in kinase profiling: 117
TTBK1
  TTBK1 activity in kinase profiling: 99
RSK1
  RSK1 activity in kinase profiling: 92
TLK1
  TLK1 activity in kinase profiling: 92
CK1γ2
  CK1γ2 activity in kinase profiling: 88
TIE2
  TIE2 activity in kinase profiling: 89
DYRK3
  DYRK3 activity in kinase profiling: 30
p38g MAPK
  p38g MAPK activity in kinase profiling: 105
HIPK2
  HIPK2 activity in kinase profiling: 19
PDK1
  PDK1 activity in kinase profiling: 88
EPH-B3
  EPH-B3 activity in kinase profiling: 110
CHK2
  CHK2 activity in kinase profiling: 88
EF2K
  EF2K activity in kinase profiling: 79
PAK5
  PAK5 activity in kinase profiling: 81
DDR2
  DDR2 activity in kinase profiling: 95
CHK1
  CHK1 activity in kinase profiling: 111
DAPK1
  DAPK1 activity in kinase profiling: 76
PAK4
  PAK4 activity in kinase profiling: 74
TBK1
  TBK1 activity in kinase profiling: 83
Aurora A
  Aurora A activity in kinase profiling: 107
VEG-FR
  VEG-FR activity in kinase profiling: 53
IKKb
  IKKb activity in kinase profiling: 90
SIK3
  SIK3 activity in kinase profiling: 79
SGK1
  SGK1 activity in kinase profiling: 88
MKK1
  MKK1 activity in kinase profiling: 85
MLK3
  MLK3 activity in kinase profiling: 18

## Cc1nc2ccc3sc(NC(=O)c4ccc5ncsc5c4)nc3c2s1 [3A5, N-(2-methyl[1,3]thiazolo[5,4-e][1,3]benzothiazol-7-yl)-1,3-benzothiazole-6-carboxamide]
MAP4K3
  MAP4K3 activity in kinase profiling: 125
PIM3
  PIM3 activity in kinase profiling: 88
NEK2a
  NEK2a activity in kinase profiling: 81
EPH-B4
  EPH-B4 activity in kinase profiling: 103
JAK2
  JAK2 activity in kinase profiling: 112
MINK1
  MINK1 activity in kinase profiling: 89
TTK
  TTK activity in kinase profiling: 56
YES1
  YES1 activity in kinase profiling: 112
Aurora B
  Aurora B activity in kinase profiling: 69
MARK4
  MARK4 activity in kinase profiling: 80
PKCa
  PKCa activity in kinase profiling: 100
MELK
  MELK activity in kinase profiling: 69
p38b MAPK
  p38b MAPK activity in kinase profiling: 100
TTBK2
  TTBK2 activity in kinase profiling: 108
WNK1
  WNK1 activity in kinase profiling: 99
SmMLCK
  SmMLCK activity in kinase profiling: 50
PRAK
  PRAK activity in kinase profiling: 89
IGF-1R
  IGF-1R activity in kinase profiling: 123
TTBK1
  TTBK1 activity in kinase profiling: 101
RSK1
  RSK1 activity in kinase profiling: 83
TLK1
  TLK1 activity in kinase profiling: 99
CK1γ2
  CK1γ2 activity in kinase profiling: 22
TIE2
  TIE2 activity in kinase profiling: 98
DYRK3
  DYRK3 activity in kinase profiling: 72
p38g MAPK
  p38g MAPK activity in kinase profiling: 107
HIPK2
  HIPK2 activity in kinase profiling: 96
PDK1
  PDK1 activity in kinase profiling: 93
EPH-B3
  EPH-B3 activity in kinase profiling: 89
CHK2
  CHK2 activity in kinase profiling: 77
EF2K
  EF2K activity in kinase profiling: 71
PAK5
  PAK5 activity in kinase profiling: 75
DDR2
  DDR2 activity in kinase profiling: 88
CHK1
  CHK1 activity in kinase profiling: 120
DAPK1
  DAPK1 activity in kinase profiling: 73
PAK4
  PAK4 activity in kinase profiling: 84
TBK1
  TBK1 activity in kinase profiling: 83
Aurora A
  Aurora A activity in kinase profiling: 127
VEG-FR
  VEG-FR activity in kinase profiling: 108
IKKb
  IKKb activity in kinase profiling: 85
SIK3
  SIK3 activity in kinase profiling: 84
SGK1
  SGK1 activity in kinase profiling: 85
MKK1
  MKK1 activity in kinase profiling: 72
MLK3
  MLK3 activity in kinase profiling: 49

From publication PMC4730229, “Benzobisthiazoles Represent a Novel Scaffold for Kinase Inhibitors of CLK Family Members” (Biochemistry, 2015)
